Patent US20140271657A1, “COMBINATORIAL COMPOSITIONS AND METHODS OF TREATING HEMOGLOBINOPATHIES” (CHILDREN'S MEDICAL CENTER CORPORATION, priority 2011, published 2014)

Legend:
human γ-globin genes = assay: Expression of human γ-globin genes monitored by qRT-PCR in β-YAC mice before and after drug treatment; assay type: in vivo, mouse
From the text: The wild-type β-globin locus transgenic (β-YAC) mouse strain was kindly provided by K. Peterson and was created with the insertion of a 213 kb YAC containing the entire human β-globin locus (30). This β-YAC line contains three intact copies of the human β-globin locus integrated at a single genomic locus. The A20 β-YAC line harboring a single copy of a 150 kb β-globin locus YAC was kindly provided by K. Gaensler and M. Groudine (31). These transgenes were maintained in the hemizygous state. C57BL/6 mice containing a Bcl11a floxed allele (with loxP sites flanking exon 1) were created through gene targeting approaches (G.C.I. et al, in preparation). To obtain the Bcl11a conditional knockout mice, the Bcl11a^fl/fl mice were crossed with various Cre strains, including EpoR-GFP Cre knock-in mice (13), Vav-Cre (32) and Mx1-Cre (33) transgenic mice. The humanized mouse model of sickle cell anemia that expresses exclusively human sickle hemoglobin (HbS) was obtained from The Jackson Laboratory and has been described and characterized previously (19). These mice contain the human sickle transgene [Tg(Hu-miniLCRα1^Gγ^Aγδβ^S)Hba^0//Hba^0Hbb^0//Hbb^0] and knockout of both the murine α- and β-globin genes (hereafter called SCD mice). The human sickle transgene were created by three DNA fragments consisting of a 6.5-kb mini-LCR, a 1.5-kb Pst I fragment containing the human α1-globin gene, and a 39-kb Kpn I fragment containing the human ^Gγ, ^Aγ, δ, and β^S globin genes in their normal genomic context (19). No significant difference in globin gene expression and SCD phenotypes were observed between mice that are knockout of one copy or both copies of murine α-globin genes. To generate BCL11A knockout SCD mice, the inventors introduced the EpoR-Cre and Bcl11a^fl/fi alleles into the SCD transgenic knockout mice (hereafter called SCD/Bcl11a^−/− mice). Mice containing both the human sickle transgene and at least one copy of murine β-globin gene were used as controls. PolyI:ployC (pIpC, SIGMA®) was prepared at 2 mg/ml in PBS and administrated via intraperitoneal (i.p.) injection daily at a dose of 25 μg/kg for 7 days. […]
FACS-sorted CD71^+Ter1 19^+ erythroid cells was isolated from bone marrows of 6-week old mice. […] Model-based expression value of probe sets were calculated by dChip from raw AFFYMETRIX® CEL files, and QQ-normalization was then applied to normalize the expression value distribution among multiple arrays (41). […] For quantitative RT-PCR analysis, RNA was extracted using a QIAamp® RNA Blood Mini Kit or an RNeasy® Plus Mini Kit (QIAGEN®). Quantified RNA was reverse-transcribed using an iScript cDNA Synthesis Kit (BIO-RAD®). cDNA samples were analyzed in triplicate with the iQ™ SYBR® Green Supermix using the iCycler Real-Time PCR Detection System (BIO-RAD®). […]

acetyl-H3 (H3ac) = assay: Western blot of acetyl-H3 (H3ac) in whole-cell extracts of bone marrow cells of treated mice; assay type: in vivo, mouse; conditions: after SAHA treatment, control and Bcl11a−/− (EpoR-Cre+) mice
From the text: (§1) The wild-type β-globin locus transgenic (β-YAC) mouse strain was kindly provided by K. Peterson and was created with the insertion of a 213 kb YAC containing the entire human β-globin locus (30). This β-YAC line contains three intact copies of the human β-globin locus integrated at a single genomic locus. The A20 β-YAC line harboring a single copy of a 150 kb β-globin locus YAC was kindly provided by K. Gaensler and M. Groudine (31). These transgenes were maintained in the hemizygous state. C57BL/6 mice containing a Bcl11a floxed allele (with loxP sites flanking exon 1) were created through gene targeting approaches (G.C.I. et al, in preparation). To obtain the Bcl11a conditional knockout mice, the Bcl11a^fl/fl mice were crossed with various Cre strains, including EpoR-GFP Cre knock-in mice (13), Vav-Cre (32) and Mx1-Cre (33) transgenic mice. The humanized mouse model of sickle cell anemia that expresses exclusively human sickle hemoglobin (HbS) was obtained from The Jackson Laboratory and has been described and characterized previously (19). […]
Expression of BCL11A was assessed using antibody 14B5 and 15E3AC11 (Abcam Inc.), as described previously (9). […] GAPDH (sc-25778, Santa Cruz Biotechnology Inc.) was analyzed as a loading control.

[1] = tested on: acetyl-H3 within γ-promoter regions; assay: ChIP of chromatin acetyl-H3 within human globin loci in CD71+Ter119+ BM cells of treated β-YAC mice; assay type: in vivo, mouse; conditions: after SAHA treatment
From the text: as §1
ChIP was performed as previously described (10). […] Precipitated DNA samples were quantified using primers designed to amplify several control regions within the human β-globin locus as indicated below the graph. […]

HDAC = conditions: cited from earlier work; for concentration at which HDAC is inhibited: in vitro or in vivo, literature

Nc1ncn([C@H]2C[C@H](O)[C@@H](CO)O2)c(=O)n1 [5-azaD, 5-aza-2′-deoxycytidine]
interaction of 5-azaD treatment with BCL11A loss on γ-globin mRNA (human γ-globin genes; Bcl11a−/− (EpoR-Cre+) vs control β-YAC mice, 5 mg/kg daily for 5 days i.p., 5 mg/kg): unexpectedly synergistic
γ-globin mRNA (human γ-globin genes; Bcl11a−/− (EpoR-Cre+) β-YAC mice, 5-azaD 5 mg/kg daily for 5 days i.p.): 37.9%
change in γ-globin mRNA (human γ-globin genes; normal (control, Bcl11a+/+) β-YAC mice, 5-azaD 5 mg/kg daily for 5 days i.p.): very small increment

O=C(CCCCCCC(=O)Nc1ccccc1)NO [SAHA, suberoylanilide hydroxamic acid]
interaction of SAHA with BCL11A loss in derepression of γ-globin mRNA (human γ-globin genes; Bcl11a−/− (EpoR-Cre+) vs control β-YAC mice, 25 mg/kg daily i.p. for up to three weeks): synergized
level of histone H3 acetylation in bone marrow cells (acetyl-H3 (H3ac)): elevated
level of histone H3 acetylation within γ-promoter regions [1]: elevated

O=C(/C=C/c1cccc(C(=O)NO)c1)NO [CBHA, m-carboxy-cinnamic acid bishydroxamic acid]
concentration at which HDAC is inhibited (HDAC): micromolar concentration or lower

CCC(=O)CCCCC[C@@H]1NC(=O)[C@H]2CCCCN2C(=O)[C@H]([C@@H](C)CC)NC(=O)[C@H](Cc2cn(OC)c3ccccc23)NC1=O [Apicidin]
concentration at which HDAC is inhibited (HDAC): nanomolar concentrations

C/C=C1\NC(=O)[C@H]2CSSCC/C=C/[C@H](CC(=O)N[C@H](C(C)C)C(=O)N2)OC(=O)[C@H](C(C)C)NC1=O [FR901228]
concentration at which HDAC is inhibited (HDAC): micromolar concentrations

C=C[C@@H](O)[C@@H]1O[C@H]1/C=C/[C@@H]1O[C@@H]1[C@@H](C)O [depudecin]
concentration at which HDAC is inhibited (HDAC): micromolar concentrations

trichostatin A [TSA]
inhibition of mammalian HDAC (HDAC; literature (Yoshida et al. 1990)): potent inhibitor
